Test results: ChEMBL document CHEMBL3588769, “Synthesis and quantitative structure-activity relationships study for phenylpropenamide derivatives as inhibitors of hepatitis B virus replication” (Eur J Med Chem, 2015)

System: not listed separately
Assay: Cytotoxicity against human HepAD38 cells assessed as reduction in cell viability
Type: cell-based
Conditions: not given

SMILES | Activity
O=C(N/C(C(=O)N1CCCCC1)=C(\Cl)c1ccccc1)c1ccccc1 | Non-toxic
COc1ccccc1/C(Cl)=C(/NC(=O)c1ccccc1)C(=O)N1CCCCC1 | Non-toxic
Cc1ccccc1/C(Cl)=C(/NC(=O)c1ccccc1)C(=O)N1CCCCC1 | Non-toxic
O=C(N/C(C(=O)N1CCCCC1)=C(\Cl)c1ccccc1F)c1ccccc1 | Non-toxic
O=C(N/C(C(=O)N1CCCCC1)=C(\Cl)c1ccc(Cl)cc1)c1ccccc1 | Non-toxic
Cc1ccc(/C(Cl)=C(/NC(=O)c2ccccc2)C(=O)N2CCCCC2)cc1 | Non-toxic
O=C(N/C(C(=O)N1CCCCC1)=C(\Br)c1ccccc1)c1ccccc1 | Non-toxic
N#Cc1ccccc1/C(Br)=C(/NC(=O)c1ccccc1)C(=O)N1CCCCC1 | Non-toxic
O=C(N/C(C(=O)N1CCCCC1)=C(\Cl)c1cncc2ccccc12)c1ccccc1 | Non-toxic
O=C(N/C(C(=O)N1CCCCC1)=C(\Cl)c1ccco1)c1ccccc1 | Non-toxic
O=C(N/C(C(=O)N1CCCCC1)=C(\Br)c1ccccc1[N+](=O)[O-])c1ccccc1 | Non-toxic
O=C(N/C(C(=O)N1CCCCC1)=C(\Br)c1ccc(Cl)cc1)c1ccccc1 | Non-toxic
Cc1ccccc1/C(Br)=C(/NC(=O)c1ccccc1)C(=O)N1CCCCC1 | Non-toxic
Cc1ccc(/C(Br)=C(/NC(=O)c2ccccc2)C(=O)N2CCCCC2)cc1 | Non-toxic
COc1ccccc1/C(Br)=C(/NC(=O)c1ccccc1)C(=O)N1CCCCC1 | Non-toxic
COc1ccc(/C(Br)=C(/NC(=O)c2ccccc2)C(=O)N2CCCCC2)cc1 | Non-toxic
O=C(N/C(C(=O)N1CCCCC1)=C(\Br)c1ccccc1Br)c1ccccc1 | Non-toxic
O=C(N/C(C(=O)N1CCCCC1)=C(\Br)c1cccc(Br)c1)c1ccccc1 | Non-toxic

SMILES | Activity
O=C(N/C(C(=O)N1CCCCC1)=C(\Br)c1ccc(Br)cc1)c1ccccc1 | Non-toxic
O=C(N/C(C(=O)N1CCCCC1)=C(\Br)c1ccccc1F)c1ccccc1 | Non-toxic
O=C(N/C(C(=O)N1CCCCC1)=C(\Br)c1ccc(F)cc1)c1ccccc1 | Non-toxic
O=C(N/C(C(=O)N1CCCCC1)=C(\Br)c1ccccc1Cl)c1ccccc1 | Non-toxic
O=C(N/C(C(=O)N1CCCCC1)=C(\Br)c1cccnc1)c1ccccc1 | Non-toxic
O=C(N/C(C(=O)N1CCCCC1)=C(\Br)c1cnc2ccccc2c1)c1ccccc1 | Non-toxic
O=C(N/C(C(=O)N1CCCCC1)=C(\Br)c1cncc2ccccc12)c1ccccc1 | Non-toxic
O=C(N/C(C(=O)N1CCCCC1)=C(\Br)c1ccco1)c1ccccc1 | Non-toxic
N#Cc1ccccc1/C(Cl)=C(/NC(=O)c1ccccc1)C(=O)N1CCCCC1 | Non-toxic
O=C(N/C(C(=O)N1CCCCC1)=C(\Cl)c1ccccc1[N+](=O)[O-])c1ccccc1 | Non-toxic
COc1ccc(/C(Cl)=C(/NC(=O)c2ccccc2)C(=O)N2CCCCC2)cc1 | Non-toxic
O=C(N/C(C(=O)N1CCCCC1)=C(\Cl)c1ccccc1Br)c1ccccc1 | Non-toxic
O=C(N/C(C(=O)N1CCCCC1)=C(\Cl)c1cccc(Br)c1)c1ccccc1 | Non-toxic
O=C(N/C(C(=O)N1CCCCC1)=C(\Cl)c1ccc(Br)cc1)c1ccccc1 | Non-toxic
O=C(N/C(C(=O)N1CCCCC1)=C(\Cl)c1ccc(F)cc1)c1ccccc1 | Non-toxic
O=C(N/C(C(=O)N1CCCCC1)=C(\Cl)c1ccccc1Cl)c1ccccc1 | Non-toxic
O=C(N/C(C(=O)N1CCCCC1)=C(\Cl)c1cccnc1)c1ccccc1 | Non-toxic
O=C(N/C(C(=O)N1CCCCC1)=C(\Cl)c1cnc2ccccc2c1)c1ccccc1 | Non-toxic

System: Hepatitis B virus
Assay: Antiviral activity against HBV infected in human HepAD38 cells assessed as inhibition of viral DNA synthesis by dot blot hybridization method
Type: functional, organism-based
Design: -log(1/EC50): unit not given here
Conditions: not given

SMILES | -log(1/EC50)
O=C(N/C(C(=O)N1CCCCC1)=C(\Cl)c1ccccc1)c1ccccc1 | 0.07918
COc1ccccc1/C(Cl)=C(/NC(=O)c1ccccc1)C(=O)N1CCCCC1 | 1.322
Cc1ccccc1/C(Cl)=C(/NC(=O)c1ccccc1)C(=O)N1CCCCC1 | -0.004365
O=C(N/C(C(=O)N1CCCCC1)=C(\Cl)c1ccccc1F)c1ccccc1 | 0.2553
O=C(N/C(C(=O)N1CCCCC1)=C(\Cl)c1ccc(Cl)cc1)c1ccccc1 | 1.708
Cc1ccc(/C(Cl)=C(/NC(=O)c2ccccc2)C(=O)N2CCCCC2)cc1 | 0.04139
O=C(N/C(C(=O)N1CCCCC1)=C(\Br)c1ccccc1)c1ccccc1 | 0.1139
N#Cc1ccccc1/C(Br)=C(/NC(=O)c1ccccc1)C(=O)N1CCCCC1 | 0.04139
O=C(N/C(C(=O)N1CCCCC1)=C(\Cl)c1cncc2ccccc12)c1ccccc1 | 1.462
O=C(N/C(C(=O)N1CCCCC1)=C(\Cl)c1ccco1)c1ccccc1 | -0.09691
O=C(N/C(C(=O)N1CCCCC1)=C(\Br)c1ccccc1[N+](=O)[O-])c1ccccc1 | 0.7782
O=C(N/C(C(=O)N1CCCCC1)=C(\Br)c1ccc(Cl)cc1)c1ccccc1 | 1
Cc1ccccc1/C(Br)=C(/NC(=O)c1ccccc1)C(=O)N1CCCCC1 | -0.05061
Cc1ccc(/C(Br)=C(/NC(=O)c2ccccc2)C(=O)N2CCCCC2)cc1 | 0.4472
COc1ccccc1/C(Br)=C(/NC(=O)c1ccccc1)C(=O)N1CCCCC1 | 0.3222
COc1ccc(/C(Br)=C(/NC(=O)c2ccccc2)C(=O)N2CCCCC2)cc1 | 0.9031
O=C(N/C(C(=O)N1CCCCC1)=C(\Br)c1ccccc1Br)c1ccccc1 | 1.398
O=C(N/C(C(=O)N1CCCCC1)=C(\Br)c1cccc(Br)c1)c1ccccc1 | 1.544

SMILES | -log(1/EC50)
O=C(N/C(C(=O)N1CCCCC1)=C(\Br)c1ccc(Br)cc1)c1ccccc1 | 1.813
O=C(N/C(C(=O)N1CCCCC1)=C(\Br)c1ccccc1F)c1ccccc1 | 0.1761
O=C(N/C(C(=O)N1CCCCC1)=C(\Br)c1ccc(F)cc1)c1ccccc1 | 0.2553
O=C(N/C(C(=O)N1CCCCC1)=C(\Br)c1ccccc1Cl)c1ccccc1 | 0.9031
O=C(N/C(C(=O)N1CCCCC1)=C(\Br)c1cccnc1)c1ccccc1 | 0
O=C(N/C(C(=O)N1CCCCC1)=C(\Br)c1cnc2ccccc2c1)c1ccccc1 | 0.8451
O=C(N/C(C(=O)N1CCCCC1)=C(\Br)c1cncc2ccccc12)c1ccccc1 | 0.699
O=C(N/C(C(=O)N1CCCCC1)=C(\Br)c1ccco1)c1ccccc1 | -0.04576
N#Cc1ccccc1/C(Cl)=C(/NC(=O)c1ccccc1)C(=O)N1CCCCC1 | 0.2304
O=C(N/C(C(=O)N1CCCCC1)=C(\Cl)c1ccccc1[N+](=O)[O-])c1ccccc1 | 1.531
COc1ccc(/C(Cl)=C(/NC(=O)c2ccccc2)C(=O)N2CCCCC2)cc1 | 1.398
O=C(N/C(C(=O)N1CCCCC1)=C(\Cl)c1ccccc1Br)c1ccccc1 | 2
O=C(N/C(C(=O)N1CCCCC1)=C(\Cl)c1cccc(Br)c1)c1ccccc1 | 2
O=C(N/C(C(=O)N1CCCCC1)=C(\Cl)c1ccc(Br)cc1)c1ccccc1 | 2
O=C(N/C(C(=O)N1CCCCC1)=C(\Cl)c1ccc(F)cc1)c1ccccc1 | 0.3424
O=C(N/C(C(=O)N1CCCCC1)=C(\Cl)c1ccccc1Cl)c1ccccc1 | 1.591
O=C(N/C(C(=O)N1CCCCC1)=C(\Cl)c1cccnc1)c1ccccc1 | -0.02687
O=C(N/C(C(=O)N1CCCCC1)=C(\Cl)c1cnc2ccccc2c1)c1ccccc1 | 1.477

Same assay, conditions: Hepatitis B virus, HePAD38

SMILES | EC50
O=C(N/C(C(=O)N1CCCCC1)=C(\Cl)c1ccccc1)c1ccccc1 | 1.2 µM
COc1ccccc1/C(Cl)=C(/NC(=O)c1ccccc1)C(=O)N1CCCCC1 | 21 µM
Cc1ccccc1/C(Cl)=C(/NC(=O)c1ccccc1)C(=O)N1CCCCC1 | 1 µM
O=C(N/C(C(=O)N1CCCCC1)=C(\Cl)c1ccccc1F)c1ccccc1 | 1.8 µM
O=C(N/C(C(=O)N1CCCCC1)=C(\Cl)c1ccc(Cl)cc1)c1ccccc1 | 51 µM
Cc1ccc(/C(Cl)=C(/NC(=O)c2ccccc2)C(=O)N2CCCCC2)cc1 | 1.1 µM
O=C(N/C(C(=O)N1CCCCC1)=C(\Br)c1ccccc1)c1ccccc1 | 1.3 µM
N#Cc1ccccc1/C(Br)=C(/NC(=O)c1ccccc1)C(=O)N1CCCCC1 | 1.1 µM
O=C(N/C(C(=O)N1CCCCC1)=C(\Cl)c1cncc2ccccc12)c1ccccc1 | 29 µM
O=C(N/C(C(=O)N1CCCCC1)=C(\Cl)c1ccco1)c1ccccc1 | 0.8 µM
O=C(N/C(C(=O)N1CCCCC1)=C(\Br)c1ccccc1[N+](=O)[O-])c1ccccc1 | 6 µM
O=C(N/C(C(=O)N1CCCCC1)=C(\Br)c1ccc(Cl)cc1)c1ccccc1 | 10 µM
Cc1ccccc1/C(Br)=C(/NC(=O)c1ccccc1)C(=O)N1CCCCC1 | 0.9 µM
Cc1ccc(/C(Br)=C(/NC(=O)c2ccccc2)C(=O)N2CCCCC2)cc1 | 2.8 µM
COc1ccccc1/C(Br)=C(/NC(=O)c1ccccc1)C(=O)N1CCCCC1 | 2.1 µM
COc1ccc(/C(Br)=C(/NC(=O)c2ccccc2)C(=O)N2CCCCC2)cc1 | 8 µM
O=C(N/C(C(=O)N1CCCCC1)=C(\Br)c1ccccc1Br)c1ccccc1 | 25 µM
O=C(N/C(C(=O)N1CCCCC1)=C(\Br)c1cccc(Br)c1)c1ccccc1 | 35 µM

SMILES | EC50
O=C(N/C(C(=O)N1CCCCC1)=C(\Br)c1ccc(Br)cc1)c1ccccc1 | 65 µM
O=C(N/C(C(=O)N1CCCCC1)=C(\Br)c1ccccc1F)c1ccccc1 | 1.5 µM
O=C(N/C(C(=O)N1CCCCC1)=C(\Br)c1ccc(F)cc1)c1ccccc1 | 1.8 µM
O=C(N/C(C(=O)N1CCCCC1)=C(\Br)c1ccccc1Cl)c1ccccc1 | 8 µM
O=C(N/C(C(=O)N1CCCCC1)=C(\Br)c1cccnc1)c1ccccc1 | 1 µM
O=C(N/C(C(=O)N1CCCCC1)=C(\Br)c1cnc2ccccc2c1)c1ccccc1 | 7 µM
O=C(N/C(C(=O)N1CCCCC1)=C(\Br)c1cncc2ccccc12)c1ccccc1 | 5 µM
O=C(N/C(C(=O)N1CCCCC1)=C(\Br)c1ccco1)c1ccccc1 | 0.9 µM
N#Cc1ccccc1/C(Cl)=C(/NC(=O)c1ccccc1)C(=O)N1CCCCC1 | 1.7 µM
O=C(N/C(C(=O)N1CCCCC1)=C(\Cl)c1ccccc1[N+](=O)[O-])c1ccccc1 | 34 µM
COc1ccc(/C(Cl)=C(/NC(=O)c2ccccc2)C(=O)N2CCCCC2)cc1 | 25 µM
O=C(N/C(C(=O)N1CCCCC1)=C(\Cl)c1ccccc1Br)c1ccccc1 | > 100 µM
O=C(N/C(C(=O)N1CCCCC1)=C(\Cl)c1cccc(Br)c1)c1ccccc1 | > 100 µM
O=C(N/C(C(=O)N1CCCCC1)=C(\Cl)c1ccc(Br)cc1)c1ccccc1 | > 100 µM
O=C(N/C(C(=O)N1CCCCC1)=C(\Cl)c1ccc(F)cc1)c1ccccc1 | 2.2 µM
O=C(N/C(C(=O)N1CCCCC1)=C(\Cl)c1ccccc1Cl)c1ccccc1 | 39 µM
O=C(N/C(C(=O)N1CCCCC1)=C(\Cl)c1cccnc1)c1ccccc1 | 0.9 µM
O=C(N/C(C(=O)N1CCCCC1)=C(\Cl)c1cnc2ccccc2c1)c1ccccc1 | 30 µM

System: HepG2
Assay: Cytotoxicity against human HepG2 cells assessed as reduction in cell viability
Type: cell-based
Conditions: not given

SMILES | Activity
O=C(N/C(C(=O)N1CCCCC1)=C(\Cl)c1ccccc1)c1ccccc1 | Non-toxic
